Measured values reported in patent US12582644B2, “O-GlcNAc transferase inhibitors and uses thereof” (President and Fellows of Harvard College, priority 2018, dated 2026).
Converted amounts (≈) assume the structure as drawn.

Legend:
[1] = system: HCT116 cells; assay: Cell viability and live-cell imaging (IncuCyte confluence, CellTiter-Glo); type: cell-based; settings: for cellular confluency relative to DMSO control: HCT116, 40 μM, 96 hours; for cell growth: HCT116, 96 hours, 10 or 40 μM
Procedure: (§1) HCT116 cells were plated into 384-well plate one day prior to treatment with compounds (300 cells per well). Compounds were dispensed using a D300e Digital Dispenser (Tecan). Cells were imaged every 3 hours using an IncuCyte ZOOM instrument (Sartorius) to generate growth curves. After four days of treatment, cell viability was assessed using the CellTiter-Glo® Luminescent Cell Viability Assay (Promega). Luminescence signal was recorded using the GloMax® Explorer System (Promega). For Cytotoxicity, HEK293T cells were plated into a 96-well plate two days prior to treatment with compounds at 80% confluency. The number of dead cells were assessed by CellTox™ Green Cytotoxicity Assay (Promega).

[2] = system: OGT's detained intron (intron 4) in HEK293T cells; assay: Quantitative PCR of OGT detained intron splicing; type: cell-based; settings: 10 μM, 2-hour treatment
Procedure: Total RNA was harvested directly from tissue culture plates using Trizol (Life Technologies) according to the manufacturer's directions. In all experiments, total RNA was treated with Turbo DNase (Life Technologies) to remove any residual DNA contamination, extracted in acid-buffered phenol/chloroform, and ethanol-precipitated. Reverse transcription was performed using 2 μg of DNase-treated total RNA in a 20 μL reaction following the manufacturer's protocol (SuperScript III, Life Technologies) for 1 h at 50° C. cDNA reactions were […] diluted 1:10, and 1 μL was used in each PCR reaction. Real-time qRT-PCR was performed using PowerUp SYBR Green (Life Technologies) on a StepOne-Plus Real-Time PCR System (Applied Biosystems).

[3] = system: global O-GlcNAcylation in LNCaP cells; assay: Western blotting for O-GlcNAc levels in LNCaP cells; settings: LNCaP prostate cancer cells
Procedure: (§3) Cells were plated and grown in their respective media until they reached a confluency of 60-80%. […] For all other cell lines, compounds were dissolved in 0.2 mL of fresh media and then added directly to the cells.
(§4) Cell lysates for from HEK293T, LNCaP, HCT116 and PC3 cells were prepared for western blotting in the following manner, and all the steps were conducted at 4° C. […] Samples were transferred to a nitrocellulose membrane (Bio-Rad). Membranes were blocked with 5% bovine serum albumin in TBST and probed with primary antibodies overnight at 4° C. and for 1 h at RT with peroxidase conjugated secondary antibodies, as indicated in each figure. Blots were developed using enhanced chemiluminescence (Pierce) and visualized with an Amersham Imager 600.

[4] = system: global O-GlcNAcylation in PC3 cells; assay: Western blotting for O-GlcNAc levels in PC3 cells; settings: PC3 prostate cancer cells
Procedure: as §3, §4

[5] = system: HCF-1 cleavage in HEK293T cells; assay: HCF-1 cleavage in HEK293T cells (Western blotting); type: cell-based; settings: for uncleaved HCF-1: over 96 hours
Excerpt: (§2) In addition to glycosylating Ser/Thr residues of proteins, OGT catalyzes cleavage of the cell-cycle regulator HCF-1 by glycosylating a glutamate in the HCF-1 cleavage sequence.^4c,7 An OGT inhibitor would be expected to block cleavage. Indeed, a decrease in HCF-1 cleavage products and the appearance of uncleaved HCF-1 in cells treated with 1b, 2b or 4b was observed (FIGS. 2E, 16). Because OGT knockdown is known to decrease cell proliferation,^8 the effects of 1b, 2b, and 4b on cell growth in culture over 96 hours were also monitored. Although there was no evidence of apoptosis, reduced growth of cells was observed over time (FIG. 17), consistent with the knockdown results.

[6] = system: HEK293T cells; assay: Quantitative proteomics / protein abundance in HEK293T cells; settings: 20 μM
Procedure: At the indicated time point, cells were lysed in lysis buffer (2% SDS 50 mM Tris-HCl and 150 mM NaCl), sonicated (BioDisruptor) and protein concentration determined with the BCA assay. Samples were reduced with 5 mM DTT for 45 mins at 60° C., then alkylated with 14 mM iodoacetamide for 45 mins at room temperature in the dark. Then 100 μg of protein was precipitated using chloroform/methanol.^32 Protein pellets were resuspended in 200 mM HEPES pH 8.5 to 1 mg/mL. Proteins were digested with LysC (Wako) (substrate:enzyme=100) overnight at 37° C. and then with sequencing grade Trypsin (Promega) (substrate:enzyme=100) for 6 hours at 37° C. The resulting peptide solutions were then labelled with TMT 10/11-plex reagents (Thermo Scientific) for 1.5 hours at room temperature. Reactions were stopped by addition of 5% hydroxylamine for 30 minutes. Equal amounts of peptide samples were combined, dried by vacuum centrifugation and desalted on a Waters C18 solid phase extraction Sep-Pak. TMT-labeled peptide samples were fractionated via basic-pH reverse-phase (BPRP) HPLC to 96 fractions and then consolidated to 12 fractions. These fractions were subsequently acidified with 1% formic acid, vacuum centrifuged to near dryness and desalted with C18 stagetips.^32 Dried peptides were resuspended in 5% acetonitrile/5% formic acid for LC-MS/MS processing. […]
Precursors for MS2/MS3 analysis were selected using a Top10 method. […] Following acquisition of each MS2 spectrum, an MS3 spectrum was collected using the recently described method in which multiple MS2 fragment ions were captured in the MS3 precursor population using isolation waveforms with multiple frequency notches.^33b MS3 precursors were fragmented by high energy collision-induced dissociation (HCD) and analyzed using the Orbitrap (NCE 65; AGC 1.5×10^5; maximum injection time 150 ms, resolution was 50,000 at 400 Th, isolation window 0.7 Da).
Mass spectra were processed using a SEQUEST-based pipeline^23 Spectra were converted to mzXML using a modified version of ReAdW.exe. […]

[7] = system: HEK293T cells; assay: CellTox Green Cytotoxicity Assay; type: cell-based; settings: 24 hours, 0-50 μM
Procedure: as §1

[8] = system: global O-GlcNAcylation in HEK293T cells; assay: Western blotting for global O-GlcNAc levels in HEK293T cells; type: cell-based; settings: for protein O-GlcNAcylation: from 2 hours (FIG. 13E); for global O-GlcNAc levels, dose dependence: 4 hours (FIG. 13C); for O-GlcNAc levels after prolonged treatment: 96 hours (FIG. 13E)
[9] = system: global O-GlcNAcylation in HCT116 cells; assay: Western blotting for global O-GlcNAc levels in HCT116 cells; type: cell-based; settings: for O-GlcNAc levels, dose dependence: HCT116, 20-80 μM, 4 hours or 24 hours
[10] = Kinetic solubility; type: physicochemical; settings: kinetic from dmso stock
[11] = PAMPA assay; type: in vitro ADME; settings: read-out: Permeability
[12] = Rat liver microsome stability assay; type: in vitro ADME; settings: rat liver microsomes; read-out: RLM Stability (t1/2)
[13] = target: T1, OGT (Homo sapiens, UniProt O15294); settings: SPR, value in parentheses; read-out: Binding affinity (Kd ± s.d.) determined by SPR; cited from earlier work
T1 sequence (O15294 1-1046): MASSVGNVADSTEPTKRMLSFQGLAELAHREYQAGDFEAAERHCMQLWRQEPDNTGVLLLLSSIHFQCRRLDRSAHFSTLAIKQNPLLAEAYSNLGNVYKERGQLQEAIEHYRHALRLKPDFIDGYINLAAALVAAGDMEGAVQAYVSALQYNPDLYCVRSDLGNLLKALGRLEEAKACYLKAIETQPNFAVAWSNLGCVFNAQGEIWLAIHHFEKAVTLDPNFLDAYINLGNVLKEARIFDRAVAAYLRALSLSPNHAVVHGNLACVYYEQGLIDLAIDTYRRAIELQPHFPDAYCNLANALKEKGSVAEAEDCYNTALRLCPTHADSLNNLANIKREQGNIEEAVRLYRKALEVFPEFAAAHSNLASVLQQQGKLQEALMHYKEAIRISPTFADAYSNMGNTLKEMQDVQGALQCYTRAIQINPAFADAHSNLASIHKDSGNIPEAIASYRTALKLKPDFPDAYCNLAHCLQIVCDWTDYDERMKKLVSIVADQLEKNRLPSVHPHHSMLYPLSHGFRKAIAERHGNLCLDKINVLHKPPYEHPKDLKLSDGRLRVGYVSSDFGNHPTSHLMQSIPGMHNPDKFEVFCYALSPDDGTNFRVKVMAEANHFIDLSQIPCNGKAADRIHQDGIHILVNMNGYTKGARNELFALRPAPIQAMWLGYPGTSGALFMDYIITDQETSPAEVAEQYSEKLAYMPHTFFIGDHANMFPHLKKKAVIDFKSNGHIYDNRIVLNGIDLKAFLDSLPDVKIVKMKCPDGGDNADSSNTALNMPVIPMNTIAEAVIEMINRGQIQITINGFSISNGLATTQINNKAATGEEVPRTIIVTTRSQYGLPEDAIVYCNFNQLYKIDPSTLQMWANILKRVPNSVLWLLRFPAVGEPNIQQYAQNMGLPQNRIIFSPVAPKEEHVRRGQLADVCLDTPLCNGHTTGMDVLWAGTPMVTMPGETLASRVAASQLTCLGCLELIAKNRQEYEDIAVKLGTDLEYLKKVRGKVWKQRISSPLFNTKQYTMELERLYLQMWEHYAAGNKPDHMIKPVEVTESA

[14] = target: T2, full length OGT (Homo sapiens, UniProt O15294); assay: Dissociation constants by microscale thermophoresis (MST); settings: read-out: Binding affinity (Kd ± s.d.), binding of compounds to OGT
T2 sequence (O15294 1-1046): T1 sequence (O15294 1-1046)
Procedure: Excess NHS-ester was removed with a Zeba™ Spin desalting column (ThermoFisher). A range of concentrations of the ligand were prepared in which the concentration of labeled OGT was kept constant at 5 nM, and all experiments were performed in MST running buffer (PBS, pH 7.4, 0.05% Tween-20, 1 mM DTT, 2% glycerol, 0.5% DMSO). Mixtures were incubated for at least 10 minutes to facilitate binding before MST experiments. MST experiments were carried out using 60% LED power and 20% MST power in standard capillaries (from NanoTemper Technologies). […] Kd values were calculated using a user-defined mass action equation in the GraphPad Prism 6 software (GraphPad Software, Inc.).

[15] = system: HCF-1 cleavage in HCT116 cells; assay: HCF-1 cleavage in HCT116 cells (Western blotting); type: cell-based; settings: HCT116, 20-80 μM, 24 hours
Excerpt: as §2

[16] = target: T3, ncOGT (Homo sapiens, UniProt O15294); assay: UDP-Glo Glycosyltransferase Assay (IC50/Ki); type: biochemical
T3 construct: Full length human OGT (ncOGT); made in house
T3 sequence (O15294 1-1046): T1 sequence (O15294 1-1046)
Procedure: Materials for this assay were obtained from Promega (catalog #V6961). […] Assays were performed in white, 384-well or H volume 96-well plates. Quantities in parenthesis apply to reactions run in H volume 96-well plates. Reaction volumes were 12 (24) μL. […] The quenched reactions were then mixed briefly by shaking at 600 rpm in a Thermomixer C, spun down at 400×g for 1 minute, and incubated for one hour at room temperature prior to reading luminescence, as per the manufacturer's guidelines. Data were analyzed by Microsoft Excel and Prism 7 (Graphpad). […] Each sample was run in duplicate, unless otherwise specified.

Compound | cellular confluency relative to DMSO control [1] | cell growth [1] | detained intron splicing of OGT transcript [2] | O-GlcNAc levels [3] | O-GlcNAc levels [4] | uncleaved HCF-1 [5] | cytotoxic cell death [7] | protein O-GlcNAcylation ([8]; HEK293T, 20 μM) | global O-GlcNAc levels, dose dependence ([8]; HEK293T) | O-GlcNAc levels after prolonged treatment ([8]; HEK293T) | O-GlcNAc levels, dose dependence [9] | solubility [10] [µg/mL] | Papp [11] [×10⁻⁶ cm/s] | half-life [12] [min] | other results
COC(=O)CN(Cc1cccs1)C(=O)[C@H](NS(=O)(=O)c1ccc2[nH]c(=O)ccc2c1)c1ccccc1OC [1b, Methyl (R)—N-(2-(2-methoxyphenyl)-2-((2-oxo-1,2-dihydroquinoline)-6-sulfonamido)acetyl)-N-(thiophen-2-ylmethyl)glycinate] | confluency is reduced | reduced cell growth compared with the control | increased detained intron splicing | Decreases in O-GlcNAc levels | Decreases in O-GlcNAc levels | time dependent increase in uncleaved HCF-1 | did not result in cytotoxic cell death | decreased protein O-GlcNAcylation in as little as 2 hours | dose dependent decreases in global O-GlcNAc levels | recover | dose dependent decreases in O-GlcNAc levels | – | – | – | OGT level (Western blotting) ([6]; 4 and 24 hours): an increase in OGT; changes in abundance of other proteins (off-target activity) ([6]; 24 hr): Few significant changes; abundance of OGT and OGA (proteomics) ([6]; time course 8, 16, 24 hours): reciprocal changes in the abundance of OGT and OGA; O-GlcNAc levels ([8]; HEK293T, 20 μM, 24 hours (FIG. 13B)): O-GlcNAc levels recover after 24 hours; ability to inhibit global O-GlcNAcylation ([8]; short treatment times (<8 hr)): decent inhibitor
CCOC(=O)CN(Cc1cccs1)C(=O)[C@H](NS(=O)(=O)c1cc2ccc(=O)[nH]c2cc1Cl)c1ccccc1OC [drawing 86] | – | – | – | – | – | – | – | – | – | – | – | 19 (≈ 31.5 µM) | 540 | 1.9 | –
CC(=O)N[C@H]1[C@@H](OP(=O)(O)OP(=O)(O)OC[C@H]2O[C@@H](n3ccc(=O)[nH]c3=O)[C@H](O)[C@@H]2O)O[C@H](CO)[C@@H](O)[C@@H]1O [UDP-GlcNAc, reference compound] | – | – | – | – | – | – | – | – | – | – | – | – | – | – | Kd [13]: 16.1 µM; Kd [14]: 16 ± 4 µM
CCOC(=O)CCCOc1ccccc1[C@@H](NS(=O)(=O)c1ccc2[nH]c(=O)ccc2c1)C(=O)N(CC(=O)OCC)Cc1cccs1 [2b, Ethyl (R)-4-(2-(2-((2-ethoxy-2-oxoethyl)(thiophen-2-ylmethyl)amino)-2-oxo-1-((2-oxo-1,2-dihydroquinoline)-6-sulfonamido)ethyl)phenoxy)butanoate] | confluency is reduced | reduced cell growth compared with the control | increased detained intron splicing | Decreases in O-GlcNAc levels | Decreases in O-GlcNAc levels | time dependent increase in uncleaved HCF-1 | did not result in cytotoxic cell death | decreased protein O-GlcNAcylation in as little as 2 hours | dose dependent decreases in global O-GlcNAc levels | remain very low | dose dependent decreases in O-GlcNAc levels | – | – | – | HCF-1 cleavage, 2b compared with 1b [15]: more effective at reducing HCF-1 cleavage; HCF-1 cleavage ([5]; 20 μM, 48 hours): blocked HCF-1 cleavage; ability to inhibit global O-GlcNAcylation, ranking ([8]; HCT116, HEK293T, PC3, and LNCaP cells): best activity; global O-GlcNAc levels, comparison with 1b ([9]; HCT116, 24-hour treatment, 20 μM (FIG. 15B)): more effective than 1b
CCOC(=O)CN(Cc1cccs1)C(=O)[C@H](NS(=O)(=O)c1cc2ccc(=O)[nH]c2cc1C)c1ccccc1OC | – | – | – | – | – | – | – | – | – | – | – | 21.1 (≈ 36.1 µM) | 511 | 1.3 | IC50 ([16]; UDP-Glo assay, 300 nM ncOGT, 40 μM UDP-GlcNAc): 1.8 µM; Ki ([16]; calculated from IC50 (UDP-Glo) by Cheng-Prusoff): 0.103 µM
